In test [1] the target is T1, HCoV-HKU1 main protease (Human coronavirus HKU1, UniProt P0C6X2).
T1 sequence (P0C6X2 3335-3637 limits assumed): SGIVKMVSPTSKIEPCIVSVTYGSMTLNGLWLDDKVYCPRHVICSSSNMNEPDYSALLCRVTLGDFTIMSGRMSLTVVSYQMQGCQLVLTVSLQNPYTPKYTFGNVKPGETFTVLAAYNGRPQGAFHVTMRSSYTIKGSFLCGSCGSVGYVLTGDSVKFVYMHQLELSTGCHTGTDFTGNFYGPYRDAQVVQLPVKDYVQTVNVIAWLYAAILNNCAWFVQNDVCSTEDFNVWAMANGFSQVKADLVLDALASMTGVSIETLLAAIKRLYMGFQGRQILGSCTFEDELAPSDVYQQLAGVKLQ
The test can be described thus: biochemical.

In test [2] the target is HCoV-NL63 main protease (Human coronavirus NL63, UniProt P0C6X5). Put plainly: biochemical.
Chain of HCoV-NL63 main protease (P0C6X5 2940-3242 limits assumed): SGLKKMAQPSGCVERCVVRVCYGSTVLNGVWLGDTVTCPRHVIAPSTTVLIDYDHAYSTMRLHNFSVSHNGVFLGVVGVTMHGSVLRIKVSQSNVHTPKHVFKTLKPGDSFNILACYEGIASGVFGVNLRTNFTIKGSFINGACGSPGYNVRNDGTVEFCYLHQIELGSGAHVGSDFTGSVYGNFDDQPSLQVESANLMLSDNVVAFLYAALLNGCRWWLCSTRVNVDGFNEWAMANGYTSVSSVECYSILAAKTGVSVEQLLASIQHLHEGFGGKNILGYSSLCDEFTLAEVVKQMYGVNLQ
Test [3] deals with SARS-CoV-2 (USA-WA1/2020). As to conditions: read-out: antiviral EC50; comparison value for the Caco2-hACE2 result; ref 9b; cited from earlier work.
Test [4] has as its target T2, SARS-CoV-2 Mpro (Severe acute respiratory syndrome coronavirus 2, UniProt P0DTD1). Put plainly: biochemical. It counts as biochemical.
Test [5] deals with SARS-CoV main protease (Severe acute respiratory syndrome coronavirus, UniProt P0C6X7). The test can be described thus: biochemical.
Test [6] concerns the target MERS-CoV main protease (Middle East respiratory syndrome-related coronavirus, UniProt K9N7C7). The test can be described thus: biochemical.
Test [7] addresses T3, HCoV-OC43 main protease (Human coronavirus OC43, UniProt P0C6X6).
T3 sequence (P0C6X6 3247-3549 limits assumed): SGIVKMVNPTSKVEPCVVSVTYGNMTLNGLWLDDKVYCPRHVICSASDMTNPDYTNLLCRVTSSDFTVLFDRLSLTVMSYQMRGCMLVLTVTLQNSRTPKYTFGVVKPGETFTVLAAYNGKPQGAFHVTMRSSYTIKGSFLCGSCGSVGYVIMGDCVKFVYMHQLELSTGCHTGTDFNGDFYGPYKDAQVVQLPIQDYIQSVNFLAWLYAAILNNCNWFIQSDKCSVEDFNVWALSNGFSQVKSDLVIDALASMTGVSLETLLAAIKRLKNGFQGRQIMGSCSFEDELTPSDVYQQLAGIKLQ
The test can be described thus: biochemical.

For test [8], the target named is HCoV-229E main protease (Human coronavirus 229E, UniProt P0C6X1). Put plainly: biochemical.
Chain of HCoV-229E main protease (P0C6X1 2966-3267): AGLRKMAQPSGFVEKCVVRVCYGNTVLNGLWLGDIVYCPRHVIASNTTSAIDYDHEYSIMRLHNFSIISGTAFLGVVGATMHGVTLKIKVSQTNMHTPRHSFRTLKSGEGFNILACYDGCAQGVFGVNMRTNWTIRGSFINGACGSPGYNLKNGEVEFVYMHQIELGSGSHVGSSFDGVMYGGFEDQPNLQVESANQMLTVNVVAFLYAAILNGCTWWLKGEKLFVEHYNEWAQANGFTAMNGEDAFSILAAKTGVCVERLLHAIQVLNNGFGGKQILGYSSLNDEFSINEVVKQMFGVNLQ
Test [9] concerns the target T2, SARS-CoV-2 Mpro. The test can be described thus: cell-based.
For test [10], the system named is SARS-CoV-2 (USA-WA1/2020). Put plainly: microbe, parasite or virus in culture. It counts as cell-based.
Test [11] has as its system SARS-CoV-2 (USA-WA1/2020). It counts as cell-based.

Structures are written as SMILES. Read-outs that look alike come from different tables or passages of the source.

Chain of MERS-CoV main protease (K9N7C7 3248-3553 limits assumed): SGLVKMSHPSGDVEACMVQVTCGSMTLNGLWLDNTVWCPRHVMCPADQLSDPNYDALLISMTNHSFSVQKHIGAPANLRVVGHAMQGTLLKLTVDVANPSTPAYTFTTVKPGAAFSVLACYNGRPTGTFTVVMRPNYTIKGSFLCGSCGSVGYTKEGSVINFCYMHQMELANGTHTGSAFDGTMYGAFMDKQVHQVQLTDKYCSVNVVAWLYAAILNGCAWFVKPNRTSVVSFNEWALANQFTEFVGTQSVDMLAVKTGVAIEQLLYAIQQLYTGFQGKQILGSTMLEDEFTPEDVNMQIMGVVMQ

As a reminder, the IC50 is the concentration needed to halve the response being measured. By EC50 is commonly meant the midpoint of the concentration-response curve. Take `CC(C)C[C@H](NC(=O)OCc1ccccc1)C(=O)N[C@@H](CC1CCNC1=O)C(O)S(=O)(=O)O` (stereo partly drawn) [GC376, reference compound]: the values for the IC50 in [1] (read-out: HKU1 IC50) and in [2] (read-out: HCoV-NL63 IC50) were 12 ± 30 nM and 120 ± 20 nM, respectively. Further, the EC50 in test [3] was 2900 nM.
On to `CC(C)C[C@@H](C(=O)N[C@H](C=O)C[C@@H]1CCNC1=O)N1C[C@@H](NC(=O)OCc2ccccc2)CC1=O` [M-1-1, Benzyl ((S)-1-((S)-4-methyl-1-oxo-1-(((S)-1-oxo-3-((S)-2-oxopyrrolidin-3-yl)propan-2-yl)amino)pentan-2-yl)-5-oxopyrrolidin-3-yl) carbamate], for which the half-maximal inhibitory concentration (IC50) in [4] (read-out: SARS-CoV-2 IC50) amounted to 510 nM.
In the case of `CC(C)C[C@@H](C(=O)N[C@H](C=O)C[C@@H]1CCNC1=O)N1C[C@@H](NC(=O)OCc2ccccc2)CCC1=O` [M-1-3, Benzyl ((S)-1-((S)-4-methyl-1-oxo-1-(((S)-1-oxo-3-((S)-2-oxopyrrolidin-3-yl)propan-2-yl)amino)pentan-2-yl)-6-oxopiperidin-3-yl)carbamate], the half-maximal inhibitory concentration (IC50) worked out at 80 ± 10 nM in test [4]; 160 ± 10 nM in test [5]; 0.41 ± 0.05 µM in [6]; 710 ± 20 nM in test [7]; 33 ± 10 nM in test [1]; 62 ± 10 nM in test [8]. Moreover, 890 ± 10 nM corresponded to half-maximal inhibition in test [2] (IC50). The compound further gave an EC50 in test [9] greater than 60 µM. Also, the antiviral activity entry in test [10] and in [11] was “not active” throughout.
Turning to `O=C[C@H](C[C@@H]1CCNC1=O)NC(=O)[C@H](CC1CCCCC1)N1C[C@@H](NC(=O)OCc2ccccc2)CCC1=O` [M-1-4, Benzyl ((S)-1-((S)-3-cyclohexyl-1-oxo-1-(((S)-1-oxo-3-((S)-2-oxopyrrolidin-3-yl)propan-2-yl)amino)propan-2-yl)-6-oxopiperidin-3-yl)carbamate], the IC50 in [4] is 950 ± 40 nM; in test [5], 730 ± 100 nM; in test [6], greater than 20 µM; in test [7] it was 3670 ± 630 nM; in test [1] it was 1210 ± 200 nM; in [8] it was 610 ± 90 nM. This compound came in with a 50% inhibitory concentration (IC50) in [2] of 9580 ± 1790 nM. For the same compound, the EC50 in [9] turned out to be 18 µM; in test [10] (Severe acute respiratory syndrome coronavirus 2, read-out: antiviral EC50), 19 µM.
The compound `O=C[C@H](C[C@@H]1CCNC1=O)NC(=O)[C@H](Cc1cccc(F)c1)N1C[C@@H](NC(=O)OCc2ccccc2)CCC1=O` [M-1-5, Benzyl ((S)-1-((S)-3-(3-fluorophenyl)-1-oxo-1-(((S)-1-oxo-3-((S)-2-oxopyrrolidin-3-yl)propan-2-yl)amino)propan-2-yl)-6-oxopiperidin-3-yl)carbamate] showed an EC50 in test [9] of 49.6 µM.
On to `O=C[C@H](C[C@@H]1CCNC1=O)NC(=O)[C@H](CC1CC1)N1C[C@@H](NC(=O)OCc2ccccc2)CCC1=O` [M-1-6, Benzyl ((S)-1-((S)-3-cyclopropyl-1-oxo-1-(((S)-1-oxo-3-((S)-2-oxopyrrolidin-3-yl)propan-2-yl)amino)propan-2-yl)-6-oxopiperidin-3-yl)carbamate], for which the IC50 amounted to 80 ± 10 nM in [4]; 250 ± 20 nM in test [5]; 0.85 ± 0.21 µM in test [6]; 180 ± 10 nM in test [7]; 120 ± 20 nM in test [1]; 180 ± 20 nM in [8]. The 50% inhibitory concentration (IC50) in test [2] was determined as 480 ± 60 nM. This compound also had a concentration giving a half-maximal response (EC50) in test [9] greater than 60 µM.
In test [4], `CC(C)C[C@@H](C(=O)N[C@H](C=O)C[C@@H]1CCNC1=O)N1C[C@@H](NC(=O)OCc2cc(F)cc(F)c2)CCC1=O` [M-1-7, 3,5-difluorobenzyl ((S)-1-((S)-4-methyl-1-oxo-1-(((S)-1-oxo-3-((S)-2-oxopyrrolidin-3-yl)propan-2-yl)amino)pentan-2-yl)-6-oxopiperidin-3-yl)carbamate] yielded a half-maximal inhibitory concentration (IC50) of 190 nM. Besides, the response in test [9] was half-maximal at 27.3 µM (EC50).
As for `CC(C)C[C@@H](C(=O)N[C@@H](C[C@@H]1CCNC1=O)C(=O)C(=O)NC1CC1)N1C[C@@H](NC(=O)OCc2ccccc2)CC1=O` [M-2-3, Benzyl ((S)-1-((S)-1-(((S)-4-(cyclopropylamino)-3,4-dioxo-1-((S)-2-oxopyrrolidin-3-yl)butan-2-yl)amino)-4-methyl-1-oxopentan-2-yl)-5-oxopyrrolidin-3-yl)carbamate], the IC50 in test [4] turned out to be 1310 ± 100 nM; in test [5], 2260 ± 390 nM; in test [6], 8.02 ± 2.07 µM; in [7], 120 ± 10 nM; in test [1], 390 ± 30 nM; in test [8] it was 690 ± 80 nM. Moreover, inhibition in test [2] was half-maximal at 830 ± 100 nM (IC50).
For `CC(C)C[C@@H](C(=O)N[C@@H](C[C@@H]1CCNC1=O)C(=O)C(=O)NC1CC1)N1C[C@@H](NC(=O)OCc2ccccc2)CCC1=O` [M-2-5, Benzyl ((S)-1-((S)-1-(((S)-4-(cyclopropylamino)-3,4-dioxo-1-((S)-2-oxopyrrolidin-3-yl)butan-2-yl)amino)-4-methyl-1-oxopentan-2-yl)-6-oxopiperidin-3-yl) carbamate], the IC50 in test [4] (read-out: SARS-CoV-2 IC50) came to 3580 nM.
Same read-out and setting: next, `O=C(N[C@H]1CCC(=O)N([C@@H](CC2CCCCC2)C(=O)N[C@@H](C[C@@H]2CCNC2=O)C(=O)C(=O)NC2CC2)C1)OCc1ccccc1` [M-2-6, Benzyl ((S)-1-((S)-3-cyclohexyl-1-(((S)-4-(cyclopropylamino)-3,4-dioxo-1-((S)-2-oxopyrrolidin-3-yl)butan-2-yl)amino)-1-oxopropan-2-yl)-6-oxopiperidin-3-yl) carbamate]: 4430 nM; `O=C(N[C@H]1CCC(=O)N([C@@H](Cc2cccc(F)c2)C(=O)N[C@@H](C[C@@H]2CCNC2=O)C(=O)C(=O)NC2CC2)C1)OCc1ccccc1` [M-2-7, Benzyl ((S)-1-((S)-1-(((S)-4-(cyclopropylamino)-3,4-dioxo-1-((S)-2-oxopyrrolidin-3-yl)butan-2-yl)amino)-3-(3-fluorophenyl)-1-oxopropan-2-yl)-6-oxopiperidin-3-yl) carbamate]: 3990 nM.
Regarding `O=C(N[C@H]1CCC(=O)N([C@@H](CC2CC2)C(=O)N[C@@H](C[C@@H]2CCNC2=O)C(=O)C(=O)NC2CC2)C1)OCc1ccccc1` [M-2-8, Benzyl ((S)-1-((S)-3-cyclopropyl-1-(((S)-4-(cyclopropylamino)-3,4-dioxo-1-((S)-2-oxopyrrolidin-3-yl)butan-2-yl)amino)-1-oxopropan-2-yl)-6-oxopiperidin-3-yl)carbamate], the IC50 was 2140 ± 90 nM in test [4]; 3880 ± 670 nM in test [5]; greater than 20 µM in test [6]; 2600 ± 450 nM in [7]; 2230 ± 460 nM in [1]; 5670 ± 490 nM in test [8]. The same compound gave an IC50 in test [2] of 10800 ± 2210 nM.

(Values after paper PMC10330001 (Chemistry (Weinheim an der Bergstrasse, Germany), 2023).)
